This is an account of results in patent US11214576B2, “2,3-dihydrofuro[2,3-b]pyridine compounds” (Eli Lilly and Company, priority 2018, dated 2022).

The structures appear in SMILES notation.

The term IC50 denotes the midpoint of a concentration-inhibition curve. Higher therefore signals a need for much substance.

Sequence of human O-GlcNAc-β-N-acetylglucosaminidase (OGA) (O60502 whole entry): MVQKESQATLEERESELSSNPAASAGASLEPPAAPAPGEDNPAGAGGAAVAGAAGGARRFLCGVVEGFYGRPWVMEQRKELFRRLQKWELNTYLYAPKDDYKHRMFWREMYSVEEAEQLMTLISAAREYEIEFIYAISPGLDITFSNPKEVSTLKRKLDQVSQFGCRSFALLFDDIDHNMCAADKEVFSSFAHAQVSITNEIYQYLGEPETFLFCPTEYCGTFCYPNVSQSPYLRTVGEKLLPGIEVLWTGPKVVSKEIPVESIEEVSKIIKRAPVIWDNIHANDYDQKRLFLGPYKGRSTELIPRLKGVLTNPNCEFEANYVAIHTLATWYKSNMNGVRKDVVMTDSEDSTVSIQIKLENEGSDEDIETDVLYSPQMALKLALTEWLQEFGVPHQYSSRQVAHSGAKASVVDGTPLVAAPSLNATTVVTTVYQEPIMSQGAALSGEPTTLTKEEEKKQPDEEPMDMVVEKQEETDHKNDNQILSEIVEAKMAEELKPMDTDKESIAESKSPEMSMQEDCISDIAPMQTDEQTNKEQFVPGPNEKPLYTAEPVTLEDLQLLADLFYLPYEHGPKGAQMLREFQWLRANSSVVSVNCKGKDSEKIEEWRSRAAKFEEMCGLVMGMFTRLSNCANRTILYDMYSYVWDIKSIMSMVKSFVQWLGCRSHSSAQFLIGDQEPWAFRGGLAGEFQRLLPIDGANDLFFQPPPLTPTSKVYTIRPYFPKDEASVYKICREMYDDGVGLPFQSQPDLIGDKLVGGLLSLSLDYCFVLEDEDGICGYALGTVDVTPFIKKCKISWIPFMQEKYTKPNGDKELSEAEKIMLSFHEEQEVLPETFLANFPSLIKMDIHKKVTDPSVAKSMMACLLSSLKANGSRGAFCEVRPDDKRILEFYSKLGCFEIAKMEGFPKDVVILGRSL

The assay addresses human O-GlcNAc-β-N-acetylglucosaminidase (OGA) (Homo sapiens (Human), UniProt O60502). Put plainly: In Vitro Human OGA Enzyme Assay. It is filed as biochemical. The following applies: full-length His-tagged human OGA; FD-GlcNAc substrate 6.7 μM; 30 min pre-incubation, 60 min reaction, pH 7. As for the experimental part: The nucleotide sequence encoding full-length human O-GlcNAc-β-N-acetylglucosaminidase (NM_012215) is inserted into pFastBacl (Invitrogen) vector with an N-terminal poly-histidine (HIS) tag. Baculovirus generation is carried out according to the Bac-to-Bac Baculovirus Expression system (Invitrogen) protocol. Sf9 cells are infected at 1.5×10^6 cells/mL using 10 mL of P1 virus per Liter of culture and incubated at 28° C. for 48 hrs. Cells are spun down, rinsed with PBS and the pellets stored at −80° C. The above OGA protein (His-OGA) is purified as follows: 4 L of cells are lysed in 200 mL of buffer containing 50 mM Tris, pH 8.0, 300 mM NaCl, 10% glycerol, 10 mM imidazole, 1 mM dithiothreitol (DTT), 0.1% Triton™ X-100, 4 tablets of protease inhibitors (complete EDTA-Free, Roche) for 45 min at 4° C. This cell lysate is then spun for 40 min at 16500 rpm at 4° C., and supernatant incubated with 6 mL of Ni-NTA resin (nickel-nitrilotriacetic acid) for 2 hours at 4° C.
Resin is then packed onto column and washed with 50 mM Tris, pH 8.0, 300 mM NaCl, 10% glycerol, 10 mM imidazole, 0.1% Triton™ X-100, 1 mM DTT, followed by 50 mM Tris, pH 8.0, 150 mM NaCl, 10 mM imidazole, 10% glycerol, 1 mM DTT. The proteins are eluted with 50 mM Tris, pH 8.0, 150 mM NaCl, 300 mM imidazole, 10% glycerol, 1 mM DTT. Pooled His-OGA containing fractions are concentrated to 6 ml and loaded onto Superdex75 (16/60). The protein is eluted with 50 mM Tris, pH 8.0, 150 mM NaCl, 10% glycerol, 2 mM DTT. Fractions containing His-OGA are pooled and protein concentration measured with BCA ([…]).
The OGA enzyme catalyses the removal of O-GlcNAc from nucleocytoplasmic proteins. To measure this activity Fluorescein di-N-acetyl-β-N-acetyl-D-glucosaminide (FD-GlcNAc, Kim, Eun Ju; Kang, Dae Ook; Love, Dona C.; Hanover, John A. Carbohydrate Research (2006), 341(8), 971-982) is used as a substrate at a final concentration of 6.7 μM (in a 384 well assay format). This fluorogenic substrate becomes fluorescent upon cleavage by OGA, so that the enzyme activity can be measured by the increase in fluorescence detected at 535 nm (excitation at 485 nm).
The assay buffer is prepared to give a final concentration of 50 mM […], 0.01% bovine serum albumin and 0.01% Triton™ X-100 in water, at pH 7. Compounds to be tested are diluted in pure dimethyl sulfoxide (DMSO) using ten point concentration response curves. Maximal compound concentration in the reaction mixture is 30 or 1 μM. […] Then, without stopping the reaction, fluorescence is read. IC50 values are calculated by plotting the normalized data vs. log of the compound and fitting the data using a four parameter logistic equation.
The compound `Cc1nnc(C2CCN(C(C)c3ccc4c(n3)OCC4)CC2)o1` (single isomer, unassigned; (+)) [Example 3] returned an IC50 of 611 nM.

`Cc1nnc(C2CCN(C(C)c3nc4c(cc3F)CCO4)CC2)o1` (single isomer, unassigned; (+)) [Example 4, (+)-5-fluoro-6-[1-[4-(5-methyl-1,3,4-oxadiazol-2-yl)-1-piperidyl]ethyl]-2,3-dihydrofuro[2,3-b]pyridine] showed an IC50 of 2660 ± 607 nM. Next, `Cc1nnc(C2CCN(C(C)c3ccc4c(n3)OCC4)CC2)o1` (single isomer, unassigned; (-)) [Example 1, (−)-6-[1-[4-(5-methyl-1,3,4-oxadiazol-2-yl)-1-piperidyl]ethyl]-2,3-dihydrofuro[2,3-b]pyridine]: 1.24 ± 0.66 nM; `Cc1nnc(C2CCN(C(C)c3nc4c(cc3F)CCO4)CC2)o1` (single isomer, unassigned; (-)) [Example 2, (−)-5-fluoro-6-[1-[4-(5-methyl-1,3,4-oxadiazol-2-yl)-1-piperidyl]ethyl]-2,3-dihydrofuro[2,3-b]pyridine]: 1.13 ± 1.02 nM.
